Laboratory results published in US20210395226A1, “SUBSTITUTED ARYL COMPOUND AND PREPARATION METHOD THEREFOR AND USE THEREOF” (SICHUAN KELUN-BIOTECH BIOPHARMACEUTICAL CO., LTD., priority 2018, published 2021).
Like-named read-outs stand apart in the source and are kept apart here.

Tests used:
[1] = molecular target: T1, Adenosine A1 receptor (human) membrane (Homo sapiens, UniProt P30542); assay: Determination of competitive inhibition constant (Ki) for adenosine A1 receptor, [3H]-DPCPX radioligand; type: binding; details: 1.0 nM [3H]-DPCPX
T1 construct: purchased PerkinElmer ES-010-M400UA
T1 sequence (P30542 1-326): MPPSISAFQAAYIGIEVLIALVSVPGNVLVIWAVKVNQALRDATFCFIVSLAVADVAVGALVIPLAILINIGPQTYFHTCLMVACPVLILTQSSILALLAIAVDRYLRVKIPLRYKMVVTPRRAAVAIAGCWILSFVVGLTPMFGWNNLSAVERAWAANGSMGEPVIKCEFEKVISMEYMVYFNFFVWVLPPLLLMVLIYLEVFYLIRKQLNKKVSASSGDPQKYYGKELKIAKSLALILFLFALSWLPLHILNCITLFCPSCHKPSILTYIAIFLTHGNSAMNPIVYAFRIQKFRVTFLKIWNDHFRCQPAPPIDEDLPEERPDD
Procedure, shortened: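 Human A1 receptor membranes (2.5 μg/well) incubated with 1.0 nM [3H]-DPCPX and test compound for 1 h at room temperature in HEPES/MgCl2/CaCl2/NaCl buffer, pH 7.4; 1000 nM CGS-15943 defined low control. Bound radioactivity collected on PEI-treated GF/C filters and counted; IC50 converted to Ki via Cheng–Prusoff using ligand Kd.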

[2] = Pharmacokinetics (PK) and distribution in brain tissue in rats; type: in vivo, male SD rats; details: for bioavailability / Cmax / AUC(0-t): male, SD; for bioavailability: plasma, oral 5 mg/kg compared with intravenous 1 mg/kg; for bioavailability / Plasma AUClast/brain AUClast: rat; for Cmax / AUC(0-t): rat plasma; for AUClast (brain): rat brain tissue
Experimental: Test Example 3: Study on Pharmacokinetics (PK) and Distribution in Brain Tissue in Rats
The compounds of the present application were administered to male SD rats by intravenous (IV) and intragastric (PO) respectively to investigate the pharmacokinetic characteristics. The dosages of IV and PO were 1 mg/kg and 5 mg/kg, respectively. The solvent for IV was a mixture of 5% DMSO, 5% Solutol (polyethylene glycol 15-hydroxystearate) and 90% saline, and the solvent for PO was 0.5% MC (methyl cellulose sodium). Before IV administration (0 h) and at 0.083 h, 0.25 h, 0.5 h, 1 h, 2 h, 4 h, 6 h, 8 h and 24 h time points after administration, blood samples were collected; before PO administration (0 h) and at 0.25 h, 0.5 h, 1 h, 2 h, 4 h, 6 h, 8 h and 24 h time points after administration, blood samples were collected; the blood samples were anticoagulated with EDTA.K2, and centrifuged to obtain plasma samples. For Compound 11, brain tissue samples were taken and homogenized at 0.25 h, 0.5 h, 1 h, 4 h and 8 h; for Compounds 19 and 32, and brain tissue samples were taken and homogenized at 0.25 h, 0.5 h, 1 h and 8 h (three SD rats were selected for the experiment of distribution in brain tissue at each time point), and the resulting brain tissue homogenate samples were stored at −80° C. The plasma samples and brain tissue homogenate samples were subjected to precipitation of protein, and then LC-MS/MS analysis was performed.
Pharmacokinetic parameters were calculated by means of non-compartmental model by using WinNonlin 6.3 software.

[3] = PO, 5 mg/kg, read-out: AUClast (plasma)

Ki [1]	bioavailability [2]	Cmax ([2]; IV, 1 mg/kg)	AUC(0-t) ([2]; IV, 1 mg/kg, read-out: AUClast)	AUC(0-t) [2, 3]	AUClast (brain) ([2]; PO, 5 mg/kg)	Plasma AUClast/brain AUClast ([2]; PO, 5 mg/kg)	Structure (SMILES)
0.204 µM	65.3%	1310 ng/mL	985 ng·h/mL	3220 ng·h/mL	11.4 ng·h/g	282/1	Cc1ncnc2ccc(-c3cnc(NC(=O)N4CCOCC4)nc3-c3ccc(F)cc3)cc12 [Compound 11, N-(4-(4-fluorophenyl)-5-(4-methylquinazolin-6-yl)pyrimidin-2-yl) morpholine-4-carboxamide]
1.4 µM	86.8%	1150 ng/mL	2630 ng·h/mL	11400 ng·h/mL	70.2 ng·h/g	163/1	Cc1cc(-c2cnc(NC(=O)N3CCOCC3)nc2-c2ccc(F)cc2)cc(Cl)n1 [Compound 19, N-(5-(2-chloro-6-methylpyridin-4-yl)-4-(4-fluorophenyl)pyrimidin-2-yl) morpholine-4-carboxamide]
